Source: ChEMBL document CHEMBL3132765, “Discovery of novel RIP derivatives by alanine scanning for the treatment of S. aureus infections” (Medchemcomm, 2013)
Values after ≈ are worked out from the molar mass of the structure shown. Active and inactive are the calls of the source. The rule behind the calls is not given here. Peptide text beside a SMILES is read from it.

Tests used:
[1] = tested on: Rattus norvegicus; experiment: Toxicity in Wistar rat infected with methicillin-susceptible Staphylococcus aureus Smith diffuse assessed as behavioral alterations at 7 mg/kg administered as solution by soaking of graft after 7 days; type: organism-based; parameters: dose 7 mg/kg; details: in vivo, other, 168 h
[2] = tested on: Rattus norvegicus; experiment: Toxicity in Wistar rat infected with methicillin-susceptible Staphylococcus aureus Smith diffuse assessed as diarrhea at 7 mg/kg administered as solution by soaking of graft after 7 days; type: organism-based; parameters: dose 7 mg/kg; details: in vivo, other, 168 h
[3] = tested on: Rattus norvegicus; experiment: Toxicity in Wistar rat infected with methicillin-susceptible Staphylococcus aureus Smith diffuse assessed as vomiting at 7 mg/kg administered as solution by soaking of graft after 7 days; type: organism-based; parameters: dose 7 mg/kg; details: in vivo, other, 168 h
[4] = tested on: Rattus norvegicus; experiment: Toxicity in Wistar rat infected with methicillin-susceptible Staphylococcus aureus Smith diffuse assessed as anorexia at 7 mg/kg administered as solution by soaking of graft after 7 days; type: organism-based; parameters: dose 7 mg/kg; details: in vivo, other, 168 h
[5] = tested on: Rattus norvegicus; experiment: Toxicity in Wistar rat infected with methicillin-susceptible Staphylococcus aureus Smith diffuse assessed as perigraft inflammation at 7 mg/kg administered as solution by soaking of graft after 7 days; type: organism-based; parameters: dose 7 mg/kg; details: in vivo, other, 168 h
[6] = tested on: Rattus norvegicus; experiment: Toxicity in Wistar rat infected with methicillin-susceptible Staphylococcus aureus Smith diffuse assessed as mortality at 7 mg/kg administered as solution by soaking of graft after 7 days; type: organism-based; parameters: dose 7 mg/kg; details: in vivo, other, 168 h
[7] = tested on: Staphylococcus aureus; experiment: Antimicrobial activity against methicillin-susceptible Staphylococcus aureus Smith diffuse assessed as inhibition of biofilm formation by cell-based microbroth dilution method; type: functional
[8] = tested on: Rattus norvegicus; experiment: Toxicity in Wistar rat infected with methicillin-susceptible Staphylococcus aureus Smith diffuse assessed as behavioral alterations administered as solution by soaking of graft after 7 days; type: organism-based; details: in vivo, other, 168 h
[9] = tested on: Rattus norvegicus; experiment: Toxicity in Wistar rat infected with methicillin-susceptible Staphylococcus aureus Smith diffuse assessed as diarrhea administered as solution by soaking of graft after 7 days; type: organism-based; details: in vivo, other, 168 h
[10] = tested on: Rattus norvegicus; experiment: Toxicity in Wistar rat infected with methicillin-susceptible Staphylococcus aureus Smith diffuse assessed as vomiting administered as solution by soaking of graft after 7 days; type: organism-based; details: in vivo, other, 168 h
[11] = tested on: Rattus norvegicus; experiment: Toxicity in Wistar rat infected with methicillin-susceptible Staphylococcus aureus Smith diffuse assessed as anorexia administered as solution by soaking of graft after 7 days; type: organism-based; details: in vivo, other, 168 h
[12] = tested on: Rattus norvegicus; experiment: Toxicity in Wistar rat infected with methicillin-susceptible Staphylococcus aureus Smith diffuse assessed as perigraft inflammation administered as solution by soaking of graft after 7 days; type: organism-based; details: in vivo, other, 168 h
[13] = tested on: Rattus norvegicus; experiment: Toxicity in Wistar rat infected with methicillin-susceptible Staphylococcus aureus Smith diffuse assessed as mortality administered as solution by soaking of graft after 7 days; type: organism-based; details: in vivo, other, 168 h
[14] = tested on: Staphylococcus aureus; experiment: Antimicrobial activity against methicillin-susceptible Staphylococcus aureus Smith diffuse infected in Wistar rat assessed as reduction in infection administered as solution by soaking of graft after 7 days relative to control; type: functional, organism-based

## CCCCCCCCCC(=O)N[C@@H](Cc1c[nH]c2ccccc12)C(=O)N[C@H](CC(N)=O)C(=O)N[C@@H](CC(=O)O)C(=O)N[C@@H]1C(=O)NCC(=O)N[C@@H](CCCN)C(=O)N[C@@H](CC(=O)O)C(=O)N[C@H](C)C(=O)N[C@@H](CC(=O)O)C(=O)NCC(=O)N[C@H](CO)C(=O)N[C@@H]([C@H](C)CC(=O)O)C(=O)N[C@@H](CC(=O)c2ccccc2N)C(=O)O[C@@H]1C
[1]
  Activity: Non-toxic
[2]
  Activity: Non-toxic
[3]
  Activity: Non-toxic
[4]
  Activity: Non-toxic
[5]
  Activity: Non-toxic
[6]
  Activity: Non-toxic
[7]
  MIC: 4 µg/mL (≈ 2.47 µM)

## C[C@@H](O)[C@H](NC(=O)[C@H](Cc1c[nH]c2ccccc12)NC(=O)[C@@H]1CCCN1)C(=O)N[C@@H](CC(N)=O)C(N)=O (H-PWTN-NH2)
[8]
  Activity: Non-toxic
[9]
  Activity: Non-toxic
[10]
  Activity: Non-toxic
[11]
  Activity: Non-toxic
[12]
  Activity: Non-toxic
[13]
  Activity: Non-toxic
[14]
  Activity: Active
[7]
  MIC: > 128 µg/mL

## C[C@@H](O)[C@H](NC(=O)[C@H](Cc1c[nH]c2ccccc12)NC(=O)[C@@H]1CCCN1C(=O)[C@@H](N)CO)C(N)=O (H-SPWT-NH2)
[8]
  Activity: Non-toxic
[9]
  Activity: Non-toxic
[10]
  Activity: Non-toxic
[11]
  Activity: Non-toxic
[12]
  Activity: Non-toxic
[13]
  Activity: Non-toxic
[14]
  Activity: Active
[7]
  MIC: > 128 µg/mL

## C[C@@H](O)[C@H](NC(=O)[C@@H](N)Cc1c[nH]c2ccccc12)C(=O)N[C@@H](CC(N)=O)C(=O)N[C@@H](Cc1ccccc1)C(N)=O (H-WTNF-NH2)
[8]
  Activity: Non-toxic
[9]
  Activity: Non-toxic
[10]
  Activity: Non-toxic
[11]
  Activity: Non-toxic
[12]
  Activity: Non-toxic
[13]
  Activity: Non-toxic
[14]
  Activity: Active
[7]
  MIC: > 128 µg/mL

## NC(=O)[C@H](Cc1c[nH]c2ccccc12)NC(=O)[C@@H]1CCCN1C(=O)[C@H](CO)NC(=O)[C@@H](N)Cc1ccc(O)cc1 (H-YSPW-NH2)
[8]
  Activity: Non-toxic
[9]
  Activity: Non-toxic
[10]
  Activity: Non-toxic
[11]
  Activity: Non-toxic
[12]
  Activity: Non-toxic
[13]
  Activity: Non-toxic
[14]
  Activity: Active
[7]
  MIC: > 128 µg/mL

## H-ASPWTNF-NH2
[8]
  Activity: Non-toxic
[9]
  Activity: Non-toxic
[10]
  Activity: Non-toxic
[11]
  Activity: Non-toxic
[12]
  Activity: Non-toxic
[13]
  Activity: Non-toxic
[14]
  Activity: Active
[7]
  MIC: > 128 µg/mL

## H-YAPWTNF-NH2
[8]
  Activity: Non-toxic
[9]
  Activity: Non-toxic
[10]
  Activity: Non-toxic
[11]
  Activity: Non-toxic
[12]
  Activity: Non-toxic
[13]
  Activity: Non-toxic
[14]
  Activity: Active
[7]
  MIC: > 128 µg/mL

## H-YSAWTNF-NH2
[8]
  Activity: Non-toxic
[9]
  Activity: Non-toxic
[10]
  Activity: Non-toxic
[11]
  Activity: Non-toxic
[12]
  Activity: Non-toxic
[13]
  Activity: Non-toxic
[14]
  Activity: Active
[7]
  MIC: > 128 µg/mL

## H-YSPATNF-NH2
[8]
  Activity: Non-toxic
[9]
  Activity: Non-toxic
[10]
  Activity: Non-toxic
[11]
  Activity: Non-toxic
[12]
  Activity: Non-toxic
[13]
  Activity: Non-toxic
[14]
  Activity: Active
[7]
  MIC: > 128 µg/mL

## H-YSPWANF-NH2
[8]
  Activity: Non-toxic
[9]
  Activity: Non-toxic
[10]
  Activity: Non-toxic
[11]
  Activity: Non-toxic
[12]
  Activity: Non-toxic
[13]
  Activity: Non-toxic
[14]
  Activity: Active
[7]
  MIC: > 128 µg/mL

## H-YSPWTAF-NH2
[8]
  Activity: Non-toxic
[9]
  Activity: Non-toxic
[10]
  Activity: Non-toxic
[11]
  Activity: Non-toxic
[12]
  Activity: Non-toxic
[13]
  Activity: Non-toxic
[14]
  Activity: Active
[7]
  MIC: > 128 µg/mL

## H-YSPWTNA-NH2
[8]
  Activity: Non-toxic
[9]
  Activity: Non-toxic
[10]
  Activity: Non-toxic
[11]
  Activity: Non-toxic
[12]
  Activity: Non-toxic
[13]
  Activity: Non-toxic
[14]
  Activity: Active
[7]
  MIC: > 128 µg/mL

## H-YSPWTNF-NH2
[14]
  Activity: Active
